Reference: patent US8889676B2, “3-ureidoisoquinolin-8-yl derivatives” (Actelion Pharmaceuticals Ltd., priority 2011, dated 2014)
In brackets after ≈: the same amount, converted by molar mass.

Test system: S. pneumoniae ATCC 49619
Experiment: Minimal inhibitory concentration (MIC) by broth microdilution (CLSI M7-A7)
Format: cell-based, Streptococcus pneumoniae
Conditions: Streptococcus pneumoniae, ATCC49619; cation-adjusted Mueller Hinton Broth supplemented with 3% (v/v) lysed horse blood; microdilution method
Outline: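 Broth microdilution per CLSI M7-A7 in cation-adjusted Mueller-Hinton broth with 3% (v/v) lysed horse blood for S. pneumoniae. MIC in mg/l.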

| Structure (SMILES) | MIC |
| --- | --- |
| CCNC(=O)Nc1cc2c(-c3ccnc(OC(C)(C)C)c3)ccc(CNC(=O)OC)c2cn1 [Example 167, [5-(2-tert-butoxy-pyridin-4-yl)-3-(3-ethyl-ureido)-isoquinolin-8-ylmethyl]-carbamic acid methyl ester] | 4 µg/mL (≈ 8.86 µM) |
| CCNC(=O)Nc1cc2c(-c3ccnc(O)c3)ccc(CNC(=O)OC)c2cn1 [Example 168, [3-(3-ethyl-ureido)-5-(2-hydroxy-pyridin-4-yl)-isoquinolin-8-ylmethyl]-carbamic acid methyl ester] | 8 µg/mL (≈ 20.2 µM) |
| CCNC(=O)Nc1cc2c(-c3ccnc(OC(C)C)c3)ccc(CNC(=O)OC)c2cn1 [Example 173, [3-(3-ethyl-ureido)-5-(2-isopropoxy-pyridin-4-yl)-isoquinolin-8-ylmethyl]-carbamic acid methyl ester] | 4 µg/mL (≈ 9.14 µM) |
| CCNC(=O)Nc1cc2c(-c3ccnc(N4CCCCC4)c3)ccc(CNC(=O)OC)c2cn1 [Example 174, [3-(3-ethyl-ureido)-5-(3,4,5,6-tetrahydro-2H-[1,2′]bipyridinyl-4′-yl)-isoquinolin-8-ylmethyl]-carbamic acid methyl ester] | 4 µg/mL (≈ 8.65 µM) |
| CCNC(=O)Nc1cc2c(-c3ccnc(CCC(N)=O)c3)ccc(CNC(=O)OCCOC)c2cn1 [Example 177, [5-[2-(2-carbamoyl-ethyl)-pyridin-4-yl]-3-(3-ethyl-ureido)-isoquinolin-8-ylmethyl]-carbamic acid 2-methoxy-ethyl ester] | 8 µg/mL (≈ 16.2 µM) |
| CCNC(=O)Nc1cc2c(-c3ccnc(C(N)=O)c3)ccc(CNC(=O)OCCOC)c2cn1 [Example 179, [5-(2-carbamoyl-pyridin-4-yl)-3-(3-ethyl-ureido)-isoquinolin-8-ylmethyl]-carbamic acid 2-methoxy-ethyl ester] | 8 µg/mL (≈ 17.1 µM) |
| CCNC(=O)Nc1cc2c(-c3ccnc(C)c3)ccc(CN(C)C(=O)OC)c2cn1 [Example 180, [3-(3-ethyl-ureido)-5-(2-methyl-pyridin-4-yl)-isoquinolin-8-ylmethyl]-methyl-carbamic acid methyl ester] | 8 µg/mL (≈ 19.6 µM) |
| CCNC(=O)Nc1cc2c(-c3ccnc(C)c3)ccc(CN(C)C(=O)OCCOC)c2cn1 [Example 181, [3-(3-ethyl-ureido)-5-(2-methyl-pyridin-4-yl)-isoquinolin-8-ylmethyl]-methyl-carbamic acid 2-methoxy-ethyl ester] | 8 µg/mL (≈ 17.7 µM) |
| CCNC(=O)Nc1cc2c(-c3ccnc(F)c3C)ccc(CNC(=O)OC)c2cn1.Cl [Example 187, [3-(3-ethyl-ureido)-5-(2-fluoro-3-methyl-pyridin-4-yl)-isoquinolin-8-ylmethyl]-carbamic acid methyl ester hydrochloride] | 4 µg/mL |
| CCNC(=O)Nc1cc2c(-c3ccnc(C)c3C)ccc(CNC(=O)OC)c2cn1.Cl [Example 189, [5-(2,3-dimethyl-pyridin-4-yl)-3-(3-ethyl-ureido)-isoquinolin-8-ylmethyl]-carbamic acid methyl ester hydrochloride] | 8 µg/mL |
| CCNC(=O)Nc1cc2c(-c3cc(C)ncc3C)ccc(CNC(=O)OC)c2cn1.Cl [Example 190, [5-(2,5-dimethyl-pyridin-4-yl)-3-(3-ethyl-ureido)-isoquinolin-8-ylmethyl]-carbamic acid methyl ester hydrochloride] | 4 µg/mL |
| CCNC(=O)Nc1cc2c(-c3ccnc(CC(=O)NC)c3)ccc(CNC(=O)OC)c2cn1 [Example 193, [3-(3-ethyl-ureido)-5-(2-(methylcarbamoyl-methyl)-pyridin-4-yl)-isoquinolin-8-ylmethyl]-carbamic acid methyl ester] | 8 µg/mL (≈ 17.8 µM) |
| CCNC(=O)Nc1cc2c(-c3ccnc(CC(=O)N(C)C)c3)ccc(CNC(=O)OC)c2cn1 [Example 194, [5-[2-(dimethylcarbamoyl-methyl)-pyridin-4-yl]-3-(3-ethyl-ureido)-isoquinolin-8-ylmethyl]-carbamic acid methyl ester] | 4 µg/mL (≈ 8.61 µM) |
| CCNC(=O)Nc1cc2c(-c3ccnc(CCC(=O)NC)c3)ccc(CNC(=O)OC)c2cn1 [Example 195, {3-(3-ethyl-ureido)-5-[2-(2-methylcarbamoyl-ethyl)-pyridin-4-yl]-isoquinolin-8-ylmethyl}-carbamic acid methyl ester] | 4 µg/mL (≈ 8.61 µM) |
| CCNC(=O)Nc1cc2c(-c3ccnc(CCC(=O)N(C)C)c3)ccc(CNC(=O)OC)c2cn1 [Example 196, [5-[2-(2-dimethylcarbamoyl-ethyl)-pyridin-4-yl]-3-(3-ethyl-ureido)-isoquinolin-8-ylmethyl]-carbamic acid methyl ester] | 4 µg/mL (≈ 8.36 µM) |

The remaining molecules from weak to strong by MIC, led by results:

| MIC | Structure (SMILES) |
| --- | --- |
| 4 µg/mL (≈ 8.94 µM) | CCNC(=O)Nc1cc2c(-c3ccnc(C(F)(F)F)c3)ccc(CNC(=O)OC)c2cn1 [Example 165, [3-(3-ethyl-ureido)-5-(2-trifluoromethyl-pyridin-4-yl)-isoquinolin-8-ylmethyl]-carbamic acid methyl ester] |
| 4 µg/mL (≈ 8.61 µM) | CCNC(=O)Nc1cc2c(-c3ccnc(N4CCOCC4)c3)ccc(CNC(=O)OC)c2cn1 [Example 169, [3-(3-ethyl-ureido)-5-(2-morpholin-4-yl-pyridin-4-yl)-isoquinolin-8-ylmethyl]-carbamic acid methyl ester] |
| 4 µg/mL (≈ 8.92 µM) | CCNC(=O)Nc1cc2c(-c3ccnc(N4CCCC4)c3)ccc(CNC(=O)OC)c2cn1 [Example 171, [3-(3-ethyl-ureido)-5-(2-pyrrolidin-1-yl-pyridin-4-yl)-isoquinolin-8-ylmethyl]-carbamic acid methyl ester] |
| 2 µg/mL (≈ 4.72 µM) | CCNC(=O)Nc1cc2c(-c3ccnc(OCC)c3)ccc(CNC(=O)OC)c2cn1 [Example 166, [5-(2-ethoxy-pyridin-4-yl)-3-(3-ethyl-ureido)-isoquinolin-8-ylmethyl]-carbamic acid methyl ester] |
| 2 µg/mL (≈ 3.72 µM) | CCNC(=O)Nc1cc2c(-c3ccnc(CC(=O)OC(C)(C)C)c3)ccc(CNC(=O)OCCOC)c2cn1 [Example 178, (4-{3-(3-ethyl-ureido)-8-[(2-methoxy-ethoxycarbonylamino)-methyl]-isoquinolin-5-yl}-pyridin-2-yl)-acetic acid tert-butyl ester] |
| 2 µg/mL (≈ 4.58 µM) | CCNC(=O)Nc1cc2c(-c3ccncc3)ccc(CNC(=O)OCCC(N)=O)c2cn1 [Example 182, [3-(3-ethyl-ureido)-5-pyridin-4-yl-isoquinolin-8-ylmethyl]-carbamic acid 2-carbamoyl-ethyl ester] |
| 2 µg/mL | CCNC(=O)Nc1cc2c(-c3ccncc3C)ccc(CNC(=O)OC)c2cn1.Cl [Example 185, [3-(3-ethyl-ureido)-5-(3-methyl-pyridin-4-yl)-isoquinolin-8-ylmethyl]-carbamic acid methyl ester hydrochloride] |
| 2 µg/mL | CCNC(=O)Nc1cc2c(-c3cc(F)ncc3C)ccc(CNC(=O)OC)c2cn1.Cl [Example 186, [3-(3-ethyl-ureido)-5-(2-fluoro-5-methyl-pyridin-4-yl)-isoquinolin-8-ylmethyl]-carbamic acid methyl ester hydrochloride] |
| 2 µg/mL | CCNC(=O)Nc1cc2c(-c3cc(C)ncc3F)ccc(CNC(=O)OC)c2cn1.Cl [Example 188, [3-(3-ethyl-ureido)-5-(5-fluoro-2-methyl-pyridin-4-yl)-isoquinolin-8-ylmethyl]-carbamic acid methyl ester hydrochloride] |
| 2 µg/mL | CCNC(=O)Nc1cc2c(-c3cc(F)ncc3F)ccc(CNC(=O)OC)c2cn1.Cl [Example 191, [5-(2,5-difluoro-pyridin-4-yl)-3-(3-ethyl-ureido)-isoquinolin-8-ylmethyl]-carbamic acid methyl ester hydrochloride] |
| 2 µg/mL (≈ 4.57 µM) | CCNC(=O)Nc1cc2c(-c3ccnc(CCCO)c3)ccc(CNC(=O)OC)c2cn1 [Example 192, {3-(3-ethyl-ureido)-5-[2-(3-hydroxy-propyl)-pyridin-4-yl]-isoquinolin-8-ylmethyl}-carbamic acid methyl ester] |
| 1 µg/mL (≈ 2.44 µM) | CCNC(=O)Nc1cc2c(-c3ccnc(OC)c3)ccc(CNC(=O)OC)c2cn1 [Example 162, [3-(3-ethyl-ureido)-5-(2-methoxy-pyridin-4-yl)-isoquinolin-8-ylmethyl]-carbamic acid methyl ester] |
| 1 µg/mL (≈ 2.45 µM) | CCNC(=O)Nc1cc2c(-c3cc(C)nc(C)c3)ccc(CNC(=O)OC)c2cn1 [Example 164, [5-(2,6-dimethyl-pyridin-4-yl)-3-(3-ethyl-ureido)-isoquinolin-8-ylmethyl]-carbamic acid methyl ester] |
| 1 µg/mL (≈ 2.45 µM) | CCNC(=O)Nc1cc2c(-c3ccnc(CC)c3)ccc(CNC(=O)OC)c2cn1 [Example 170, [5-(2-ethyl-pyridin-4-yl)-3-(3-ethyl-ureido)-isoquinolin-8-ylmethyl]-carbamic acid methyl ester] |
| 1 µg/mL (≈ 2.41 µM) | CCNC(=O)Nc1cc2c(-c3cc(F)nc(F)c3)ccc(CNC(=O)OC)c2cn1 [Example 172, [5-(2,6-difluoro-pyridin-4-yl)-3-(3-ethyl-ureido)-isoquinolin-8-ylmethyl]-carbamic acid methyl ester] |
| 1 µg/mL (≈ 2.3 µM) | CCNC(=O)Nc1cc2c(-c3ccnc(C)c3)ccc(CNC(=O)OC(C)(C)C)c2cn1 [Example 176, [3-(3-ethyl-ureido)-5-(2-methyl-pyridin-4-yl)-isoquinolin-8-ylmethyl]-carbamic acid tert-butyl ester] |
| 1 µg/mL (≈ 2.95 µM) | CCNC(=O)Nc1cc2cccc(CNC(=O)c3cnn[nH]3)c2cn1 [Example 183, 3H-[1,2,3]triazole-4-carboxylic acid [3-(3-ethyl-ureido)-isoquinolin-8-ylmethyl]-amide] |
| 1 µg/mL | CCNC(=O)Nc1cc2c(-c3ccncc3F)ccc(CNC(=O)OC)c2cn1.Cl [Example 184, [3-(3-ethyl-ureido)-5-(3-fluoro-pyridin-4-yl)-isoquinolin-8-ylmethyl]-carbamic acid methyl ester hydrochloride] |
| 0.5 µg/mL (≈ 1.27 µM) | CCNC(=O)Nc1cc2c(-c3ccnc(N)c3)ccc(CNC(=O)OC)c2cn1 [Example 163, [5-(2-amino-pyridin-4-yl)-3-(3-ethyl-ureido)-isoquinolin-8-ylmethyl]-carbamic acid methyl ester] |
| 0.5 µg/mL (≈ 1.27 µM) | CCNC(=O)Nc1cc2c(-c3ccnc(C)c3)ccc(CNC(=O)OC)c2cn1 [Example 175, [3-(3-ethyl-ureido)-5-(2-methyl-pyridin-4-yl)-isoquinolin-8-ylmethyl]-carbamic acid methyl ester] |
